The term inhibition denotes the change of the read-out against control, counted positive when it falls. A low value points to a weak effect. As a reminder, the EC50 is the midpoint of the concentration-response curve.

The values below come from article PMC9696366, “Flavones, Flavonols, Lignans, and Caffeic Acid Derivatives from Dracocephalum moldavica and Their In Vitro Effects on Multiple Myeloma and Acute Myeloid Leukemia” (International Journal of Molecular Sciences, 2022).

Data set [1] concerns Molm-13 cells. As to the kind of experiment: Proliferation, modified MTT assay (EZ4U) on AML cells. It counts as cell-based. As to conditions: 48 h, compared to untreated cells; for inhibition at 2.5 µM: Homo sapiens, Molm-13, 2.5 µM. Here is the method: (§1) Proliferation was measured using a modified MTT assay (EZ4U kit, Biomedica, Vienna, Austria) according to the manufacturer’s instructions. In brief, 2.5 × 10^4 (Molm-13)—5.0 × 10^4 cells (KMS-12-PE cells) were seeded in 96-well plates and substances were added as indicated. Different concentrations are due to the different doubling time of the cells (24 h vs. 48 h). Cells were incubated for 48 h and during the last 7 h of incubation, 3-(4,5-dimethylthiazol-2-yl)-2,5-diphenyltetrazolium bromide was added as a substrate. Reduction of the tetrazolium salt to formazan by the mitochondrial activity of the growing cells was measured as optical density at 492 nm (with 620 nm as reference) on a plate reader. Proliferation (mean +/− SD) was calculated as the percentage of control (without substances). Concentrations used were 10 µM/5 µM/2.5 µM for all substances. Gilteritinib was used as a positive control at 2.5 µM.
On the technique in general: Formazan colour is commonly taken as a measure of viable cells.

Another data set deals with T1, FLT3 (Homo sapiens, UniProt P36888).
T1 construct: purchased Thermo Fisher Scientific Inc. (Waltham, MA, USA)
T1 sequence (P36888 27-993): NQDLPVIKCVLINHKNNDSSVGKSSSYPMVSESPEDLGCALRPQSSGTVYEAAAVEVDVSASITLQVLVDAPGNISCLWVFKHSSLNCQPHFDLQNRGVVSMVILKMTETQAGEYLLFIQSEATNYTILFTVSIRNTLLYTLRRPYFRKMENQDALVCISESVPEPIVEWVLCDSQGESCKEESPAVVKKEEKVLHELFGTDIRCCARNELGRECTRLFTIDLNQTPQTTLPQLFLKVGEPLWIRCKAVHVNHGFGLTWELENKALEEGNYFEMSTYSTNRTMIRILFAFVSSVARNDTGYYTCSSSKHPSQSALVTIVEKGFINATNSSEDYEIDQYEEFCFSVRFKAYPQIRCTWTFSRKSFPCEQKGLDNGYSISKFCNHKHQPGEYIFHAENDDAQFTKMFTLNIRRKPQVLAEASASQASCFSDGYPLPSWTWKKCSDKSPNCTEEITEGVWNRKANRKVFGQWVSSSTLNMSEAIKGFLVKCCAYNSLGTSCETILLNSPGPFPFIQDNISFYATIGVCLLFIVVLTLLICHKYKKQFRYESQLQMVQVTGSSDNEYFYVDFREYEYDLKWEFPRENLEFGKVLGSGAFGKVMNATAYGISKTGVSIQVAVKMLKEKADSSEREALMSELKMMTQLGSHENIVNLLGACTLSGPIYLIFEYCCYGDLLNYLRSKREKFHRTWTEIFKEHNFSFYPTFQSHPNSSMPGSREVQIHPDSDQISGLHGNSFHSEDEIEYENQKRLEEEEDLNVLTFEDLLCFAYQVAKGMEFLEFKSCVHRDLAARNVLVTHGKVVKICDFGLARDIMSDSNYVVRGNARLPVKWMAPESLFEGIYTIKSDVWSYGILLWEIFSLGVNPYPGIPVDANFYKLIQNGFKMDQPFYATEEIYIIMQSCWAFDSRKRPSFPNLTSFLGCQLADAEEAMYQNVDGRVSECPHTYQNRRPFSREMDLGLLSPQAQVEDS
In words: FLT3 kinase assay (Z'-LYTE). It is filed as biochemical. As to conditions: 6.25 nM (lowest concentration), 20 ng FLT3 protein. The procedure:
FLT3 inhibitory activity of compounds 1 and 3 was determined using the Z’-LYTE screening protocol. Z’-LYTE Kinase Assay—Tyrosine 2 Peptide Kit and FLT3 were purchased from Thermo Fisher Scientific Inc. (Waltham, MA, USA). The assay was performed according to the manufacturer’s instructions using a kinase buffer (50 mM HEPES pH 7.5, 0.01% BRIJ-35, 10 mM MgCl2, 1 mM EGTA) containing 0.01 to 20 ng of FLT3. Compounds were measured at concentrations of 50 nM/25 nM/12.5 nM/6.25 nM using gilteritinib as a positive control.

Data set [2] relates to KMS-12-PE cells. In words: Proliferation, modified MTT assay (EZ4U) on myeloma cells. As to conditions: 10 to 2.5 µM (gilteritinib 2.5 µM), 48 h. It is filed as cell-based. The procedure: as §1
Data set [3] concerns KMS-12-PE cells. As to the kind of experiment: Apoptosis measurement (AnnexinV/PI staining) on myeloma cells. It is filed as cell-based. As to conditions: for viability at 12.5 µM / viability at 25 µM / viability at 50 µM / EC50: Homo sapiens, 48 h; for viability at 12.5 µM / viability at 25 µM / viability at 50 µM: read-out: % Alive (cells alive of control); for EC50: best-fit model. The procedure: (§2) Cytotoxicity was measured as induction of apoptosis in myeloma cell line KMS-12-PE and AML cell line Molm-13, staining the cells with AnnexinV-fluorescein isothiocyanate (AnnexinV-FITC) and propidium iodide (PI). Cell lines were purchased from DSMZ (Braunschweig, Germany) and routinely fingerprinted and tested for mycoplasma negativity. All cell lines were grown in RPMI-1640 medium (Life Technologies, Paisley, UK), and supplemented with 10% fetal calf serum (FCS; PAA, Linz, Austria), L-glutamine 100 µg/mL, and penicillin-streptomycin 100 U/mL. Compounds were dissolved in DMSO at a stock concentration of 50 mM and stored at −20 °C. Briefly, 0.5 × 10^6 cancer cells/mL were incubated for 24 h and 48 h with or without the tested compounds at indicated concentrations. Analyses were performed in duplicates and a solvent control was included. The extent of non-apoptotic cells (AnnexinV/propidium iodide negativity) was calculated as the percentage of viable cells in respect to the untreated control. Data are shown as the mean percentage of viable cells +/− standard deviation (SD) (error bars).

In data set [4] the test system is Molm-13 cells. In words: Apoptosis measurement (AnnexinV/PI staining) on AML cells. It is filed as cell-based. As to conditions: for EC50: best-fit model; for viability at 12.5 µM: Molm-13, 12.5 µM; for viability at 12.5 µM / viability at 25 µM / viability at 50 µM: 48 h, read-out: % Alive (cells alive of control); for viability at 25 µM: Molm-13, 25 µM; for viability at 50 µM: Molm-13, 50 µM. The procedure: as §2

For the molecule `COc1cc2oc(-c3ccc(O)cc3)cc(=O)c2c(O)c1OC` [Compound 1, cirsimaritin], the inhibition at 2.5 µM with Molm-13 cells [1] was determined as 72%. At FLT3, the inhibition at 0.00625 µM was 81%. Also, the “Inhibition of proliferation (in words)” value in the data set with KMS-12-PE cells [2] was “marginally”. For the same molecule, the “Cytotoxic effect / induction of apoptosis (in words)” value with KMS-12-PE cells [3] (12.5-50 µM) is “induced apoptosis”; in the data set with Molm-13 cells [4] (Molm-13, 12.5-50 µM), “induced apoptosis”. For the same molecule, the viability at 12.5 µM was found to be 86.8 ± 14.5% with KMS-12-PE cells [3] and 77.3 ± 9% in the data set with Molm-13 cells [4] (Homo sapiens). For the same molecule, the viability at 25 µM in the data set on KMS-12-PE cells [3] was 76.6 ± 25.6%; with Molm-13 cells [4] (Homo sapiens), 48.4 ± 12%. Moreover, the viability at 50 µM with KMS-12-PE cells [3] came to 58.9 ± 28.6%; with Molm-13 cells [4] (Homo sapiens) it was 12.9 ± 4.1%. Besides, the EC50 with KMS-12-PE cells [3] is greater than 50 µM; in the data set with Molm-13 cells [4] (Homo sapiens, MOLM-13, 48 h) it was roughly 22 µM; in the data set with Molm-13 cells [4] (Molm-13, 48 h), 21.7 µM.

As to `COc1c(OC)c(O)c2c(=O)cc(-c3ccc(O)cc3)oc2c1OC` [Compound 3, xanthomicrol], the inhibition at 2.5 µM in the data set on Molm-13 cells [1] was determined as 84%. For the same molecule, the Inhibition of proliferation entry with Molm-13 cells [1] (Molm-13, concentrations from 10 to 2.5 µM) is reported as “up to 93%”. Further, at 0.00625 µM the inhibition against FLT3 was 88%. Besides, the “Inhibition of proliferation (in words)” value with KMS-12-PE cells [2] was “marginally”. Further, in the data set with KMS-12-PE cells [3], the viability at 12.5 µM is 69.5 ± 16%, the viability at 25 µM was found to be 62.6 ± 13.1%, the viability at 50 µM was found to be 55.4 ± 13.1% and it took 45.4 µM to reach a half-maximal effect (EC50). In addition, the half-maximal effective concentration (EC50) in the data set with Molm-13 cells [4] (Homo sapiens, MOLM-13, 48 h) was roughly 28 µM. Further, in the data set with Molm-13 cells [4] (Homo sapiens), the viability at 12.5 µM came out at 56.4 ± 9.1%, the viability at 25 µM amounted to 53.5 ± 1% and the viability at 50 µM stood at 47 ± 2.7%. The EC50 with Molm-13 cells [4] (Molm-13, 48 h) stood at 28 µM.
